The structures appear in SMILES notation.

One assay concerns the target T1, WEE1 (Homo sapiens, UniProt P30291+Q96SW2).
T1 construct: endogenous in cells; host or cells: hPBMCs (Milecell Biotechnologies)
Nature of the assay: Western-blot assay of substrate protein degradation in hPBMCs, WEE1. Format: cell-based. Particulars: 24 hours of compound treatment, 50 nM and 500 nM tested (concentration behind the class not stated).

Another assay addresses T2, IKZF1 (Homo sapiens, UniProt Q13422+Q96SW2).
T2 construct: endogenous in cells; host or cells: hPBMCs (Milecell Biotechnologies)
Kind of assay: Western-blot assay of substrate protein degradation in hPBMCs, IKZF1. Format: cell-based. The conditions noted are these: 24 hours of compound treatment, 50 nM and 500 nM tested (concentration behind the class not stated).

The next assay addresses T3, IKZF2 (Homo sapiens, UniProt Q96SW2+Q9UKS7).
T3 construct: endogenous in cells; host or cells: hPBMCs (Milecell Biotechnologies)
Nature of the assay: Western-blot assay of substrate protein degradation in hPBMCs, IKZF2. Format: cell-based. Particulars: 24 hours of compound treatment, 50 nM and 500 nM tested (concentration behind the class not stated).

The next assay has as its target T4, IKZF3 (Homo sapiens, UniProt Q96SW2+Q9UKT9).
T4 construct: endogenous in cells; host or cells: hPBMCs (Milecell Biotechnologies)
Nature of the assay: Western-blot assay of substrate protein degradation in hPBMCs, IKZF3. Format: cell-based. Particulars: 24 hours of compound treatment, 50 nM and 500 nM tested (concentration behind the class not stated).

Another assay deals with T5, CK1α (Homo sapiens, UniProt P48729+Q96SW2).
T5 construct: endogenous in cells; host or cells: hPBMCs (Milecell Biotechnologies)
Nature of the assay: Western-blot assay of substrate protein degradation in hPBMCs, CK1α. Format: cell-based. Particulars: 24 hours of compound treatment, 50 nM and 500 nM tested (concentration behind the class not stated).

The next assay has as its target T6, GSPT1 (Homo sapiens, UniProt P15170+Q96SW2).
T6 construct: endogenous in cells; host or cells: hPBMCs (Milecell Biotechnologies)
Nature of the assay: Western-blot assay of substrate protein degradation in hPBMCs, GSPT1. Format: cell-based. The conditions noted are these: 24 hours of compound treatment, 50 nM and 500 nM tested (concentration behind the class not stated).

A further assay concerns MV-4-11. Nature of the assay: Tumor cell proliferation inhibition (CellTiter-Meiluncell Luminescent Cell Viability Assay), MV-4-11. The conditions noted are these: Homo sapiens, MV4-11, read-out: inhibitory activity (IC50, nM) against tumor cells proliferation, MV-4-11.
Assay [1] has as its target T7, human Cereblon WT GST-tagged protein (Homo sapiens, UniProt Q96SW2).
T7 construct: purchased CISBIO 64BDCRBNPEH
Nature of the assay: CRBN-binding affinity by HTRF (CEREBLON BINDING kit). The conditions noted are these: HTRF inhibitory activity, CEREBLON BINDING kit; read-out: HTRF IC50.

T6 sequence (P15170 whole entry): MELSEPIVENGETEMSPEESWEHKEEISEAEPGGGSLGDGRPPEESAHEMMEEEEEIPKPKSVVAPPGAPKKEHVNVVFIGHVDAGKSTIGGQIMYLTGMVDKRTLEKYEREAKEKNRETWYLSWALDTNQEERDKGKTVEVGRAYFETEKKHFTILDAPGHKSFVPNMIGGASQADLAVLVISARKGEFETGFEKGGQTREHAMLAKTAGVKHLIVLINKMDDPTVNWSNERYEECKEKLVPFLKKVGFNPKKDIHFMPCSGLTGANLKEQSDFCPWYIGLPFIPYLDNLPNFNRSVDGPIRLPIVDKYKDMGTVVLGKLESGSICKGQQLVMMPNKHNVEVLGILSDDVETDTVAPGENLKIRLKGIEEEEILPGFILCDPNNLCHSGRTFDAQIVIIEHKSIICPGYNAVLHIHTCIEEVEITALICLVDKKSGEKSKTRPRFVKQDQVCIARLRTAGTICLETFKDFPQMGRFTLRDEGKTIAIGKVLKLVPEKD
T6 sequence (Q96SW2 whole entry): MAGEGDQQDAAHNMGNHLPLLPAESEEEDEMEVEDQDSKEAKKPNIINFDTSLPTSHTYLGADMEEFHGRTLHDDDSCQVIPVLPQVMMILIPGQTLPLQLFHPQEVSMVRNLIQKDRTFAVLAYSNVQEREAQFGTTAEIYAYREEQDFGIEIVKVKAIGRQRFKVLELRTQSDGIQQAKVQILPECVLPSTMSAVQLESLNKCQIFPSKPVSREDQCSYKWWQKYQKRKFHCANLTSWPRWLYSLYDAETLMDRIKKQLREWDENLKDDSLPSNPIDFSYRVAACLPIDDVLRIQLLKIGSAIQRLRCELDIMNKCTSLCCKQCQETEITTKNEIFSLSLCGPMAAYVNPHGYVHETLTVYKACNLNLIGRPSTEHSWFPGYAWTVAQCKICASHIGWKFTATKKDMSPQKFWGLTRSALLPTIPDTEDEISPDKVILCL
T6 sequence (Q16531 whole entry partner): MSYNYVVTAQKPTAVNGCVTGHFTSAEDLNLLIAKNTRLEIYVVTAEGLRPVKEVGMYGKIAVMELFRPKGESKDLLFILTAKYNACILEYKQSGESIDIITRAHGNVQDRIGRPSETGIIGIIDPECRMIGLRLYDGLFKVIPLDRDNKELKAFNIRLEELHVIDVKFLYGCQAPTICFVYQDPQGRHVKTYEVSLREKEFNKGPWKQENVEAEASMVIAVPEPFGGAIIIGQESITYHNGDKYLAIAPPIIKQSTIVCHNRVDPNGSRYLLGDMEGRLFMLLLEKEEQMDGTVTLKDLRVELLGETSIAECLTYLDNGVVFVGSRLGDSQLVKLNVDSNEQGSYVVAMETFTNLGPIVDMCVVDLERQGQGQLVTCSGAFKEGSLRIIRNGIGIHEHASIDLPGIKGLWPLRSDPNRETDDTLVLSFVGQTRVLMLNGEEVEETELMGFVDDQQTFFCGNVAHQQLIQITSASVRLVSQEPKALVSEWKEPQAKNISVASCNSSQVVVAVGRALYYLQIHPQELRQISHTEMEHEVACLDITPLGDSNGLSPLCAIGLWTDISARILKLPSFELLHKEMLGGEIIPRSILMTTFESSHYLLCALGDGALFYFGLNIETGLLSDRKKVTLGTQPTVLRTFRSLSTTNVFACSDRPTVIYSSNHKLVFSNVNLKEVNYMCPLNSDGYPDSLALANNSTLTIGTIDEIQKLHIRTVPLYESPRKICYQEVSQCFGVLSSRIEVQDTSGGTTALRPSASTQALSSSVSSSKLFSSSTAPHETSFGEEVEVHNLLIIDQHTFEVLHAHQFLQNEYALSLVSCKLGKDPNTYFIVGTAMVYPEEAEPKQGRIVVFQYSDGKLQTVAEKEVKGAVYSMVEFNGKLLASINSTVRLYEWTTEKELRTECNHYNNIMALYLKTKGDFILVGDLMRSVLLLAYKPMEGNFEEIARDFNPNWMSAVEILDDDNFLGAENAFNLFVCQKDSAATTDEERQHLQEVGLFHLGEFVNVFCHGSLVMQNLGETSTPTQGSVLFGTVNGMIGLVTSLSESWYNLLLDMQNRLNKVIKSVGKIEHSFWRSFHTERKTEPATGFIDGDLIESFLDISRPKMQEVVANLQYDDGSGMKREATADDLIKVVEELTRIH
T7 sequence (Q96SW2 whole entry): as the sequence (Q96SW2 whole entry) above
T3 sequence (Q9UKS7 whole entry): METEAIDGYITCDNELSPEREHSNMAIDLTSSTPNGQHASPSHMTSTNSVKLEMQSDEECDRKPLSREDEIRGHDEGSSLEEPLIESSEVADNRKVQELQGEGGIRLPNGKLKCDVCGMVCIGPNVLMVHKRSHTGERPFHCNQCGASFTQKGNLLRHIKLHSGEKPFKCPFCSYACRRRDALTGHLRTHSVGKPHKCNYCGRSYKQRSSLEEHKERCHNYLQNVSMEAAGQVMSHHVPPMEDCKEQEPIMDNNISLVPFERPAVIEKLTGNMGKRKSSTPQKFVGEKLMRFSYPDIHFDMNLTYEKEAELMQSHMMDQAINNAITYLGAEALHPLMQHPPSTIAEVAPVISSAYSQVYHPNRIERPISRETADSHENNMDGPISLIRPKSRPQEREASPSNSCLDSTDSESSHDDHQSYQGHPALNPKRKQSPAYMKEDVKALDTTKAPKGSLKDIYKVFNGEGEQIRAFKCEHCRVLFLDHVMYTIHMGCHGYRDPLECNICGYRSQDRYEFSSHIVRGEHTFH
T3 sequence (Q96SW2 whole entry): as the sequence (Q96SW2 whole entry) above
T3 sequence (Q16531 whole entry partner): as the sequence (Q16531 whole entry partner) above
T2 sequence (Q13422 whole entry): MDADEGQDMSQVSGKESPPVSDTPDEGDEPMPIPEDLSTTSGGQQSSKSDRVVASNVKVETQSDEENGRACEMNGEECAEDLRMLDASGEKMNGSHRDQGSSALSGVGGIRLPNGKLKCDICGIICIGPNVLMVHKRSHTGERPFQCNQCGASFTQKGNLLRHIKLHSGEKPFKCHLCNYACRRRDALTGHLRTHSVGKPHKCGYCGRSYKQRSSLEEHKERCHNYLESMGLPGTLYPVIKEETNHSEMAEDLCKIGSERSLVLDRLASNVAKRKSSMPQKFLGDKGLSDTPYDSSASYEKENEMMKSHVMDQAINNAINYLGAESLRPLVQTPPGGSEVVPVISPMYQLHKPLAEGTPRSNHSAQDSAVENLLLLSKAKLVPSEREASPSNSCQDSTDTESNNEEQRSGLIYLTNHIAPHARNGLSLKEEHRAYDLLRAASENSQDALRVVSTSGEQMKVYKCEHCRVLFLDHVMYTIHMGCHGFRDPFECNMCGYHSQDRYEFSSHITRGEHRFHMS
T2 sequence (Q96SW2 whole entry): as the sequence (Q96SW2 whole entry) above
T2 sequence (Q16531 whole entry partner): as the sequence (Q16531 whole entry partner) above
T1 sequence (P30291 whole entry): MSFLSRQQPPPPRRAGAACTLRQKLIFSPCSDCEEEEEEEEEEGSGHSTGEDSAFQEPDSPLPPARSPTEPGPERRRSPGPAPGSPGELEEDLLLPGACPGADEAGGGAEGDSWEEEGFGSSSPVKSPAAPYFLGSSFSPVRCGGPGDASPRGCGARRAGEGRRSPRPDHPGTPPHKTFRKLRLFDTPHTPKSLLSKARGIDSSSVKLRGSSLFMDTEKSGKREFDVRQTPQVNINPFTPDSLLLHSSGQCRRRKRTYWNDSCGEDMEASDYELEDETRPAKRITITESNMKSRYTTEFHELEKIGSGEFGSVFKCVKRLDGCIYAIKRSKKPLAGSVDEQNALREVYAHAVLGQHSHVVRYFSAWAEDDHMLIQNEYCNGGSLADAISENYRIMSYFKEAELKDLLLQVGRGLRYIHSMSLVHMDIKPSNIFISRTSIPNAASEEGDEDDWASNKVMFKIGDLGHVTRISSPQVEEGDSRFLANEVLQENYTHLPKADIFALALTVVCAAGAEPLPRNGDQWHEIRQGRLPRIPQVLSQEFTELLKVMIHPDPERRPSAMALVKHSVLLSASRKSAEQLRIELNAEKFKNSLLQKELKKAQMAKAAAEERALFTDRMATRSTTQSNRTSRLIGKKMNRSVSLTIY
T1 sequence (Q96SW2 whole entry): as the sequence (Q96SW2 whole entry) above
T1 sequence (Q16531 whole entry partner): as the sequence (Q16531 whole entry partner) above
T5 sequence (P48729 whole entry): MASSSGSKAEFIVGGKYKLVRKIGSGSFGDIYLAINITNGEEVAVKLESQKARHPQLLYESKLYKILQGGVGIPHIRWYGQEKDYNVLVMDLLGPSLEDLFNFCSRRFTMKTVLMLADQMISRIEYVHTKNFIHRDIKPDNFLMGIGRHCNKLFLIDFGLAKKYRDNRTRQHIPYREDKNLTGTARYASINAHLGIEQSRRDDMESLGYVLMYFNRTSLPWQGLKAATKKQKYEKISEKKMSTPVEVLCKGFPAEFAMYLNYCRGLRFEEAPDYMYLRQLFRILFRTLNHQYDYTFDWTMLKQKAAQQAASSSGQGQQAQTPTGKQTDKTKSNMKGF
T5 sequence (Q96SW2 whole entry): as the sequence (Q96SW2 whole entry) above
T5 sequence (Q16531 whole entry partner): as the sequence (Q16531 whole entry partner) above

As to `O=C1CCC(N2C(=O)c3ccc(CN4CCN(c5nsc6cc(F)ccc56)CC4)cc3C2=O)C(=O)N1` (centres unmarked) [GT-06631, 2-(2,6-dioxopiperidin-3-yl)-5-((4-(6-fluorobenzo[d]isothiazol-3-yl)piperazin-1-yl)methyl)isoindoline-1,3-dione], the “Weel substrate protein remaining %” value at WEE1 is listed as “A (0% ≤ substrate protein remaining % ≤ 80%)”. In addition, at IKZF1, the “IKZF 1 substrate protein remaining %” value was “B (80%< substrate protein remaining %≤ 100%)”. Moreover, on IKZF2, the “IKZF2 substrate protein remaining %” value is reported as “B (80%< substrate protein remaining %≤ 100%)”. The “IKZF3 substrate protein remaining %” value on IKZF3 is “B (80%< substrate protein remaining %≤ 100%)”. Besides, the “CK1a substrate protein remaining %” value at CK1α is “A (0% ≤ substrate protein remaining % ≤ 80%)”. At GSPT1, the “GSPT1 substrate protein remaining %” value is on record as “A (0% ≤ substrate protein remaining % ≤ 80%)”. Moreover, the IC50 in the assay on MV-4-11 lay within 100 to 500 nM.
For the compound `O=C1CCC(N2C(=O)c3ccc(CN4CCC(N5CCc6cc(F)ccc65)CC4)cc3C2=O)C(=O)N1` (centres unmarked) [GT-06637, 2-(2,6-dioxopiperidin-3-yl)-5-((4-(5-fluoroindolin-1-yl)piperidin-1-yl)methyl)isoindoline-1,3-dione], the “Weel substrate protein remaining %” value on WEE1 is listed as “A (0% ≤ substrate protein remaining % ≤ 80%)”. Besides, at IKZF1, the “IKZF 1 substrate protein remaining %” value is given as “A (0% ≤ substrate protein remaining % ≤ 80%)”. The “IKZF2 substrate protein remaining %” value on IKZF2 is listed as “A (0% ≤ substrate protein remaining % ≤ 80%)”. Besides, the “IKZF3 substrate protein remaining %” value on IKZF3 is listed as “A (0% ≤ substrate protein remaining % ≤ 80%)”. In addition, the “CK1a substrate protein remaining %” value on CK1α is given as “A (0% ≤ substrate protein remaining % ≤ 80%)”. Also, the “GSPT1 substrate protein remaining %” value at GSPT1 was “A (0% ≤ substrate protein remaining % ≤ 80%)”. The IC50 in the assay on MV-4-11 was in the range of 50 to 100 nM.
Consider `O=C1CCC(N2C(=O)c3ccc(CN4CCC(n5cnc6cc(F)ccc65)CC4)cc3C2=O)C(=O)N1` (centres unmarked) [GT-06638, 2-(2,6-dioxopiperidin-3-yl)-5-((4-(5-fluoro-1H-benzo[d]imidazol-1-yl)piperidin-1-yl)methyl)isoindoline-1,3-dione], for which the “Weel substrate protein remaining %” value on WEE1 is given as “A (0% ≤ substrate protein remaining % ≤ 80%)”. In addition, at IKZF1, the “IKZF 1 substrate protein remaining %” value is “B (80%< substrate protein remaining %≤ 100%)”. In addition, the “IKZF2 substrate protein remaining %” value on IKZF2 is listed as “B (80%< substrate protein remaining %≤ 100%)”. Also, the “IKZF3 substrate protein remaining %” value at IKZF3 was “B (80%< substrate protein remaining %≤ 100%)”. Besides, at CK1α, the “CK1a substrate protein remaining %” value is “A (0% ≤ substrate protein remaining % ≤ 80%)”. Also, at GSPT1, the “GSPT1 substrate protein remaining %” value is “A (0% ≤ substrate protein remaining % ≤ 80%)”. Besides, the IC50 with MV-4-11 lay in the range of 500 to 1000 nM.
Consider `Cc1nc(C2=CCN(Cc3ccc4c(c3)C(=O)N(C3CCC(=O)NC3=O)C4=O)CC2)c2c3c(sc2n1)CCCC3` (centres unmarked) [GT-06679, 2-(2,6-dioxopiperidin-3-yl)-5-((4-(2-methyl-5,6,7,8-tetrahydrobenzo[4,5]thieno[2,3-d]pyrimidin-4-yl)-3,6-dihydropyridin-1(2H)-yl)methyl)isoindoline-1,3-dione], for which, at WEE1, the “Weel substrate protein remaining %” value was “A (0% ≤ substrate protein remaining % ≤ 80%)”. Also, the “IKZF 1 substrate protein remaining %” value on IKZF1 is recorded as “B (80%< substrate protein remaining %≤ 100%)”. For the same compound, the “IKZF2 substrate protein remaining %” value on IKZF2 is recorded as “B (80%< substrate protein remaining %≤ 100%)”. For the same compound, the “IKZF3 substrate protein remaining %” value on IKZF3 is on record as “A (0% ≤ substrate protein remaining % ≤ 80%)”. The “CK1a substrate protein remaining %” value on CK1α is recorded as “B (80%< substrate protein remaining %≤ 100%)”. In addition, the “GSPT1 substrate protein remaining %” value on GSPT1 is reported as “B (80%< substrate protein remaining %≤ 100%)”. The IC50 is 1500 to 1900 nM in assay [1] and 100 to 500 nM in the assay on MV-4-11.
On to `O=C1CCC(N2C(=O)c3ccc(CN4CC=C(c5ncnc6sc7c(c56)CCC7)CC4)cc3C2=O)C(=O)N1` (centres unmarked) [GT-06681, 5-((4-(6,7-dihydro-5H-cyclopenta[4,5]thieno[2,3-d]pyrimidin-4-yl)-3,6-dihydropyridin-1(2H)-yl)methyl)-2-(2,6-dioxopiperidin-3-yl)isoindoline-1,3-dione], for which the “Weel substrate protein remaining %” value on WEE1 is “A (0% ≤ substrate protein remaining % ≤ 80%)”. Further, at IKZF1, the “IKZF 1 substrate protein remaining %” value is on record as “A (0% ≤ substrate protein remaining % ≤ 80%)”. In addition, the “IKZF2 substrate protein remaining %” value at IKZF2 is “A (0% ≤ substrate protein remaining % ≤ 80%)”. Moreover, on IKZF3, the “IKZF3 substrate protein remaining %” value is “A (0% ≤ substrate protein remaining % ≤ 80%)”. Further, the “CK1a substrate protein remaining %” value at CK1α was “B (80%< substrate protein remaining %≤ 100%)”. In addition, the “GSPT1 substrate protein remaining %” value at GSPT1 was “A (0% ≤ substrate protein remaining % ≤ 80%)”. The IC50 in assay [1] lay in the range of 1500 to 1900 nM; in the assay with MV-4-11, 500 to 1000 nM.
In the case of `O=C1CCC(N2C(=O)c3ccc(CN4CCN(c5nc(N6CCOCC6)nc6c5SCC6)CC4)cc3C2=O)C(=O)N1` (centres unmarked) [GT-06712, 2-(2,6-dioxopiperidin-3-yl)-5-((4-(2-morpholino-6,7-dihydrothieno[3,2-d]pyrimidin-4-yl)piperazin-1-yl)methyl)isoindoline-1,3-dione], the “Weel substrate protein remaining %” value on WEE1 is recorded as “B (80%< substrate protein remaining %≤ 100%)”. Also, the “IKZF 1 substrate protein remaining %” value at IKZF1 is on record as “B (80%< substrate protein remaining %≤ 100%)”. Moreover, the “IKZF2 substrate protein remaining %” value on IKZF2 is on record as “B (80%< substrate protein remaining %≤ 100%)”. Further, the “IKZF3 substrate protein remaining %” value on IKZF3 was “B (80%< substrate protein remaining %≤ 100%)”. The “CK1a substrate protein remaining %” value on CK1α is “B (80%< substrate protein remaining %≤ 100%)”. Also, the “GSPT1 substrate protein remaining %” value at GSPT1 is on record as “A (0% ≤ substrate protein remaining % ≤ 80%)”. The IC50 with MV-4-11 fell in the range of 100 to 500 nM.
For the compound `O=C1CCC(N2C(=O)c3ccc(CN4CCN(c5nc(N6CCOCC6)nc6ccsc56)CC4)cc3C2=O)C(=O)N1` (centres unmarked) [GT-06717, 2-(2,6-dioxopiperidin-3-yl)-5-((4-(2-morpholinothieno[3,2-d]pyrimidin-4-yl)piperazin-1-yl)methyl)isoindoline-1,3-dione], on WEE1, the “Weel substrate protein remaining %” value is listed as “A (0% ≤ substrate protein remaining % ≤ 80%)”. Moreover, the “IKZF 1 substrate protein remaining %” value at IKZF1 is recorded as “A (0% ≤ substrate protein remaining % ≤ 80%)”. Moreover, the “IKZF2 substrate protein remaining %” value at IKZF2 is listed as “B (80%< substrate protein remaining %≤ 100%)”. For the same compound, the “IKZF3 substrate protein remaining %” value on IKZF3 is “B (80%< substrate protein remaining %≤ 100%)”. Also, the “CK1a substrate protein remaining %” value at CK1α was “B (80%< substrate protein remaining %≤ 100%)”. Also, the “GSPT1 substrate protein remaining %” value on GSPT1 was “A (0% ≤ substrate protein remaining % ≤ 80%)”. Moreover, the IC50 with MV-4-11 was 10 to 50 nM.
In the case of `O=C1CCC(N2C(=O)c3ccc(CN4CCN(c5nc(N6CCOCC6)c6sccc6n5)CC4)cc3C2=O)C(=O)N1` (centres unmarked) [GT-06718, 2-(2,6-dioxopiperidin-3-yl)-5-((4-(4-morpholinothieno[3,2-d]pyrimidin-2-yl)piperazin-1-yl)methyl)isoindoline-1,3-dione], at WEE1, the “Weel substrate protein remaining %” value is reported as “B (80%< substrate protein remaining %≤ 100%)”. The “IKZF 1 substrate protein remaining %” value on IKZF1 is “B (80%< substrate protein remaining %≤ 100%)”. At IKZF2, the “IKZF2 substrate protein remaining %” value is on record as “B (80%< substrate protein remaining %≤ 100%)”. Moreover, the “IKZF3 substrate protein remaining %” value at IKZF3 is reported as “B (80%< substrate protein remaining %≤ 100%)”. The “CK1a substrate protein remaining %” value on CK1α is recorded as “B (80%< substrate protein remaining %≤ 100%)”. Moreover, the “GSPT1 substrate protein remaining %” value at GSPT1 is recorded as “A (0% ≤ substrate protein remaining % ≤ 80%)”. Further, the IC50 lay within 1000 to 1500 nM in assay [1] and 100 to 500 nM in the assay on MV-4-11.

(Values after patent publication EP4745137A1 (Gluetacs Therapeutics (Shanghai) Co., Ltd., priority 2023, dated 2025).)
